The record followed here is patent US6566508B2, “Fluorogenic compounds and uses therefor” (3M Innovative Properties Company, priority 2000, dated 2003).

A short description of data set [1]: pKa determination from fluorescence emission as a function of pH. As to the method:
Fifty microliters of this solution were then diluted to 4.00 mL in a series of 50 mM sodium phosphate buffer solutions, each having a different pH, corresponding to the traces of FIG. 7a, as shown in Table 1. The final concentration of TU was 3.08×10^−4 M.

Data set [2] in a line: Fluorescence excitation and emission spectra. The settings on record: for λem (nm) / λex (nm): anion of hydrolysis product.
Description: Fluorescence measurements were made using a SPEX Fluorolog™ Series spectrofluorimeter (SPEX Industries, Inc., Edison, N.J.).
By using an excitation source filter centered in this spectral window and an emission source filter centered between 480 nm and 600 nm, the formation of TU anion can be measured as a product of the enzymatic cleavage of β-TUGlc without interference from β-TUGlc fluorescence.
Data set [3] has as its system B. stearothermophilus spores. Nature of the data set: Bacterial hydrolysis of α-TUGlc. The class given is cell-based, Bacillus stearothermophilus. The following applies: spores 1×10^8 cells/mL diluted in growth media, 56° C., 10 μL of 246 μM substrate. As to the method: 100 μL of B. stearothermophilus spores (initial cone. 1×10^8 cells/mL) was added to 890 μL of growth media and the mixture was incubated at 56° C. for 7 minutes. […] This increase in fluorescence indicates enzymatic cleavage of the substrate. However, because the spores have both β- and α-glucosidase activity, the stereochemistry of the substrate can not be judged.

Data set [4] relates to B. stearothermophilus α-glucosidase. Nature of the data set: Enzymatic hydrolysis of α-TUGlc. The settings on record: 60° C., growth media, 10 μL of 246 μM substrate, ex 450 nm, em 502 nm. Format: biochemical. The protocol: Commercially prepared B. stearothermophilus α-glucosidase (Sigma Chemical Company, St. Louis, Mo.) was used as 100 units per mL (1 unit produces 1 μmole of product per minute). 10 μL of this solution was added to […] of growth media to simulate the actual environment of the bacterial spores. This enzyme and media mixture was then incubated for 7 minutes at 60° C., at which time 10 μL of 246 μM α-TUGlc (prepared as described in Example 4) was added. The reaction was monitored on the SPEX Fluorolog™ spectrofluorimeter by exciting at 450 nm with emission at 502 nm. […] Variation in fluorescence may be due to variation in activity of the bacterial enzyme per mL of mixture. The assays of examples 7 and 8 confirmed the presence of the α-glucoside derivative.

In data set [5] the target is β-galactosidase from E. coli (Escherichia coli, UniProt P00722). The settings on record: pH 7.6, 37° C., excitation 450 nm, 1, 10 and 20 μM substrate.
Chain of β-galactosidase from E. coli (P00722 2-1024): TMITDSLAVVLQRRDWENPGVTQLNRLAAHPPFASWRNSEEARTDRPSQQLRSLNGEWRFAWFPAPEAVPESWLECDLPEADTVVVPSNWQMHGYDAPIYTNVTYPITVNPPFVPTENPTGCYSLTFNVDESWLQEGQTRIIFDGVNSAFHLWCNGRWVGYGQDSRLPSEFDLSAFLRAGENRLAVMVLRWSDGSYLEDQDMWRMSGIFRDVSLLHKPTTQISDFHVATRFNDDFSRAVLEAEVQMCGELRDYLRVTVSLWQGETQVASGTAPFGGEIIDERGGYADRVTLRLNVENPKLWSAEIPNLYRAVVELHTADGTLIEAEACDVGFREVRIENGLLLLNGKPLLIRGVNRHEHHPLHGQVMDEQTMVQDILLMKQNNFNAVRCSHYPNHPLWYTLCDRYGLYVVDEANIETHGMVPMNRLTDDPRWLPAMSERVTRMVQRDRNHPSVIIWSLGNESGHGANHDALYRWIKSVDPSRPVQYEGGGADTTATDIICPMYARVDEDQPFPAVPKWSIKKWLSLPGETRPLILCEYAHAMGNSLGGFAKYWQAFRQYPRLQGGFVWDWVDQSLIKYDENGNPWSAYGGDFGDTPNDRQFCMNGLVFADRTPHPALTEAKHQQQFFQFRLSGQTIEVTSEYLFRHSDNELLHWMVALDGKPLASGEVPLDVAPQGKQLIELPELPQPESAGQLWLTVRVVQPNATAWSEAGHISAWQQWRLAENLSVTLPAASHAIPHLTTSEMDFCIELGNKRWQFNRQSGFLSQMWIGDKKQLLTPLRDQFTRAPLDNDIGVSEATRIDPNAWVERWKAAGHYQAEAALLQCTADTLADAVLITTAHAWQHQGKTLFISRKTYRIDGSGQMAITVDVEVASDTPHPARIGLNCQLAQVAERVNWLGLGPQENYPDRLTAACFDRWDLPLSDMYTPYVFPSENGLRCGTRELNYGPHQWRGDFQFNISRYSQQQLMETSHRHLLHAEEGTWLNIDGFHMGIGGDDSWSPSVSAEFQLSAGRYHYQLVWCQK
Protocol: β-Galactosidase activity was continuously assayed at pH 7.6 in a fluorometer using front face detection.
Samples were excited at 450 nm and emission was monitored at 502 nm.
Assay solutions were prepared as follows: a 100 mM sodium phosphate solution, pH 7.6, a 30 mM MgCl2 solution, a solution of β-TUGal (3.08×10^−2 M, Example 1) in N,N-dimethyl formamide (DMF), and a solution of β-galactosidase (1.0 units/μl) from E. coli (Grade VIII, Sigma Chemical Co., St. Louis, Mo.) reconstituted in 100 mM sodium phosphate, pH 7.3.
All reagents were kept on ice until their time of use. From them, two solutions were prepared: the substrate solution and the enzyme solution. The substrate solution was prepared in a sample vial by further dilution of the β-TUGal solution in DMF. The preparations gave final concentrations of 1, 10, and 20 μM β-TUGal. In a separate cuvette, the phosphate buffer was combined with 150 μL MgCl2 solution and the appropriate amount of reconstituted β-galactosidase to make the enzyme solution. This was then incubated for seven minutes at 37° C. Following incubation, the substrate solution was added and the fluorescence was measured by front face detection over a 10-minute period at 37° C.
The test system of a further data set is E. coli P18 cells. Nature of the data set: Escherichia coli detection with β-TUGal in growth media (microwell fluorescence). The class given is cell-based. The protocol: E. coli is known to secrete extracellular galactosidase. In a selective growth media, E. coli can be detected based on development of this enzyme activity. Varying concentrations of 3-(2-thienyl) umbelliferyl-β-D-galactoside (β-TUGal) indicator were assayed against three known concentrations of E. coli P 18 cells: ca 10^3, 10^2, and 10 cells/mL. Viable cell counts were determined using Petrifilm (3M, St. Paul, Minn.). Adjusting for the dilutions used in the fluorescence detection experiments, cell counts were approximately 56, 5.6, and 0.56 cells per well. A fresh overnight culture of E. coli P18 was prepared and grown in tryptic soy broth (TSB, Sigma Chemical Co., St. Louis, Mo.). Ten μL of this stock culture was diluted into […] of Butterfields phosphate buffer (Hardy Diagnostics, Santa Maria, Calif.) to give a 10,000 fold dilution. Next, 10 mL of this new solution was diluted into 90 mL of phosphate buffer to give an approximate E. coli concentration of 10^3 cells/mL. Two more dilutions in this same manner yielded cultures of 10^2 and 10 cells/mL. […] Each of the three lowest dilutions of the E. coli culture were counted on Petrifilm by plating 1 mL of each and growing overnight at 37° C.

The subject of data set [6] is β-glucosidase. Nature of the data set: Hand-held LED probe, cleavage of β-TUGlc. The class given is biochemical. The settings on record: 0.125 units β-glucosidase, pH 7.6 PBS, GaN LED. As to the method: A solution of 100 μL of 1.0 mM β-TUGlc (Example 1) in DMF was combined with 840 μL of 7.6 pH PBS in a 1 mL cuvette, and the volume was adjusted to 990 μL by the addition of […] of 30 mM aq. MgCl. The mixture was irradiated using a GaN LED (λmax=480 nm, Nichia Chemical Industries, Ltd., Anan, J P) mounted in a compact, hand-held probe, and 10 μL of β-glucosidase (0.125 units in pH 7.6 PBS) was added. Within ten seconds, a strong fluorescent signal could be seen in the cuvette.

The next data set concerns Bacillus subtilis spores. Nature of the data set: LED-based monitoring of bacterial cleavage of β-TUGlc. Format: cell-based.
The subject of data set [7] is B. stearothermophilus spores. Nature of the data set: Bacillus stearothermophilus detection with β-TUGlc. Format: cell-based. The protocol: B. stearothermophilus spores (commercially available as ATCC 7953 or ATCC 8005 from American Type Culture Collection, Rockville, Md.) were diluted in growth media to a concentration of 1.3×10^8 cells per mL. Dilutions to 10^7 […] and 10^6 cells/mL were prepared using 50 mM sodium phosphate, pH 7.6. Aliquots of these solutions were incubated with β-TUGlc (2×10^−6 M) at 56° C. in a fluorimeter and fluorescence was monitored with excitation at 450 nm and emission at 502 nm. […] In a similar manner, spore solutions that had been steam-sterilized for 20 minutes at 121° C. were mixed with the β-TUGlc. […] The growth medium for this Example was prepared by dissolution of trypticase peptone (5 g), phytone peptone (12 g) and L-alanine (17 mg) in 1 liter of water.

Data set [8] deals with β-glucosidase. Nature of the data set: LED-based monitoring of enzymatic cleavage of β-TUGlc. Format: biochemical. The protocol: A 10× objective was used for large detection zones (e.g., solution cuvettes, microwell arrays) and a 40× objective was used for small samples (e.g., 50 μm wide channels in microfluidic chips). […] (Model #04 OAS 016; 0.65 N.A.).
Two stock solutions of β-glucosidase (Sigma Chemical Co., St. Louis, Mo.) were prepared in pH 7.6 phosphate buffered saline (PBS): (a) 1 enzyme unit/20 μL and (b) 1 enzyme unit/400 μL, where one enzyme unit liberates 1 μMole of product per minute when salicin is the substrate. Required amounts of the stock solutions were diluted with 980 μL of PBS to create samples of 0.5, 0.125, 0.0625, 0.025, and 0.0125 units per mL, represented in FIG. 17a by traces 1 through 5, respectively. These samples were incubated for 7 minutes at 37° C., then treated with 5 μL of 24.6 mM β-TUGlc in DMF (Example 1) such that the initial concentration of β-TUGlc was 123 μM.
Fluorescence resulting from cleavage of the substrate was monitored in a thermostatted cuvette at 37 ° C. using the testbed described in Example 9 with a PMT gain setting of 822 Amperes/Watt. Fluorescent response for each enzyme concentration was monitored for three minutes. FIG. 17b is a plot of the initial rates of reaction obtained from the data in FIG. 17a.

A short description of data set [9]: Autoclave stability of β-TUGlc. The class given is physicochemical. The following applies: 0.1 g/mL in B. subtilis growth media and pH 7.6 PBS; 20 minutes at 121° C., then 15 minutes at 132° C. The protocol:
Solutions of 0.1 g/mL of β-TUGlc (Example 1) in B. subtilis growth media and in pH 7.6 phosphate buffered saline (PBS) were heated in an autoclave for 20 minutes at 121° C. Fluorescence spectrum on excitation at 362 nm was obtained. The sample was heated a second time in an autoclave for 15 minutes at 132° C., and the fluorescence spectrum was obtained. […] Therefore, β-TUGlc was sufficiently robust to be used in a sterilization indicator format such as a Attest™ Rapid Readout Biological Indicator (3M Company, St. Paul, Minn.), wherein the fluorogenic enzyme substrate and the biological spore are both exposed to the conditions within the steam sterilizer.

Where [10] appears, read: 5 μM solution in 50 mM PBS at pH 10.0.
[11] abbreviates: 5 μM solution in phosphate buffered saline at pH 7.6.

Like-named read-outs stand apart in the source and are kept apart here.

Description for Bacillus subtilis spores: LED 110, having a maximum emission at 475 nm (Model HP HLMP CB15, Hewlett Packard Instruments, Palo Alto, Calif.), was driven in a pulsed mode with a 10% duty cycle by computer-controlled pulse generator 132 (Hewlett Packard Instruments). Light from LED 110 was introduced into filter block 130 (Model I3, Leica Microsystems, Inc., Deerfield, Ill.), comprising excitation filter 112 (model BP, 450-490 nm), dichroic mirror 114 (model RKP, reflection short pass at 510 nm), and emission filter 120 (model LP, 515 nm) and focused on an illumination region of sample 118 by objective lens 116. The illumination region was designed to accommodate a solution sample, a microfluidic chip, or other sample that might contain β-TUGlc to be enzymatically cleaved. A 10× objective was used for large detection zones (e.g., solution cuvettes, microwell arrays) and a 40× objective was used for small samples (e.g., 50 μm wide channels in microfluidic chips). Both objective lenses were obtained from Melles Griot, Irvine, Calif. […] Return fluorescence was passed through objective lens 116, reflected from dichroic mirror 114 through emission filter 120 and iris diaphragm 122, and detected with photomultiplier tube 124 (PMT Model H5783, Hamamatsu Corp., Bridgewater, N.J.) having an adjustable gain between 0 and 70,000 Amperes/Watt. PMT module 124 was powered by a 15 volt power supply (not shown). […]

One may read the pKa as the negative logarithm of the acid dissociation constant. In data set [1], `O=c1oc2cc(O)ccc2cc1-c1nc2ccccc2[nH]1` [3-(2-benzoimidazolyl) umbelliferyl anion] came in with a pKa of 7.01. Besides, in data set [2], the “λem (nm)” value is recorded as 477 nm and the “λex (nm)” value was 420 nm.
In turn, `O=c1oc2cc(O)ccc2cc1-c1nc2ccccc2s1` [3-(2-benzothiazolyl) umbelliferyl anion] returned a pKa in data set [1] of 6.79. Further, in [2], the “λem (nm)” value came to 488 nm and the “λex (nm)” value amounted to 447 nm.
The compound `O=c1oc2cc(O)ccc2cc1-c1nc2ccccc2o1` [3-(2-benzoxazolyl) umbelliferyl anion] yielded a pKa in [1] of 6.56. In data set [2], the “λem (nm)” value worked out at 471 nm and the “λex (nm)” value worked out at 425 nm.
The compound `O=c1oc2cc(O)ccc2cc1-c1cccs1` [3-(2-thienyl) umbelliferyl anion, 3-(2-thienyl) umbelliferone] came in with a pKa in data set [1] (umbelliferone hydrolysis product) of 7.57±0.03. Moreover, in data set [2] (setting [10]), the emission maximum is about 502 nm and the excitation maximum is about 410 nm. In [2], the “λem (nm)” value is recorded as 502 nm and the “λex (nm)” value stood at 410 nm.
In the case of `O=c1oc2cc(OC3OC(CO)C(O)C(O)C3O)ccc2cc1-c1cccs1` (stereo not drawn) [α-TUGlc], the “fluorescence at 502 nm after substrate addition” value in [3] is “Fluorescence increased rapidly in the first 20 minutes”. The “time at which Vmax appears” value in data set [4] is “about 2 minutes”.
For `O=c1oc2cc(O[C@@H]3O[C@H](CO)[C@H](O)[C@H](O)[C@H]3O)ccc2cc1-c1cccs1` [β-TUGal, 3-(2-thienyl)-umbelliferyl-7-β-D-galactoside], in data set [5], the “fluorescence at 502 nm on addition of β-galactosidase” value was “rapid increase in fluorescence”. For the same compound, the positive results in the data set with E. coli P18 cells (0.56 cell concentration) is on record as 3 of the 10 concentrations showed positive results. The “fastest time to positive result” value with E. coli P18 cells (56 cells per well, 62 μM indicator) is 6.5 h.
In the case of `O=c1oc2cc(O[C@@H]3O[C@H](CO)[C@@H](O)[C@H](O)[C@H]3O)ccc2cc1-c1cccs1` [β-TUGlc, 3-(2-thienyl)-umbelliferyl-7-β-D-glucoside], the “time to strong fluorescent signal” value in the data set with β-glucosidase [6] is recorded as “ten”. In data set [2] (setting [11]), the emission maximum is about 460 nm and the excitation maximum is given as about 380 nm. The “time to presumptive identification of B. subtilis after mixing” value in the data set with Bacillus subtilis spores (10^8 spores/mL, 37° C., PMT gain 88 Amperes/Watt) is “less than five”. Also, the “fluorescent signal with steam-sterilized control” value in the data set with Bacillus subtilis spores (steam-sterilized at 121° C. for 20 minutes) is reported as “no time-dependent changes in the fluorescent signal”. In addition, the “time until fluorescence changes were evident” value in data set [7] (10^7 and 10^6 cells/mL, 2×10^−6 M substrate, 56° C., ex 450 nm, em 502 nm) is given as “less than 10 minutes”. In addition, the “cleavage by steam-sterilized spore solutions” value in [7] (spores steam-sterilized 20 minutes at 121° C.) is listed as “no enzymatic cleavage reaction”. Also, in the data set with β-glucosidase [8] (0.5 enzyme units, 123 μM substrate, 37° C., pH 7.6 PBS), the “time to significant, detectable fluorescent signal” value is listed as “less than 5 seconds”. The “fluorescent signal with steam-sterilized enzyme” value in the data set on β-glucosidase [8] (enzyme solutions steam-sterilized at 121° C. for 20 minutes) is recorded as “no time-dependent changes in the fluorescent signal”. Moreover, the “fraction hydrolyzed during each autoclave cycle” value in [9] is “approximately 10%”.
